Measurements published in patent US10138222B2, “Substituted benzamides as RIPK2 inhibitors” (Boehringer Ingelheim International GmbH, priority 2016, dated 2018).

Target: RIPK2 (Homo sapiens (Human), UniProt O43353)
Assay: RIPK2 inhibition, ADP-Glo Kinase Assay
Format: biochemical
Conditions: 8His-RIPK2 FL enzyme 8 nM, ATP 5 μM, 15 minutes pre-incubation, 60 minutes at 37° C., luminescence
Experimental: RIPK2 inhibition for compounds in Table 1 are shown in Table 3 and measured using the following method:
Materials: White, 384-well optiplates (cat.no. 6007290) were purchased from PerkinElmer. The V9103X ADP-Glo Kinase Assay Custom (including ultra-pure ATP) was purchased from Promega. 8His-RIPK2 FL was prepared in-house. All other materials were of highest grade commercially available.
Method: In a 384-well plate, test compound diluted in assay buffer (1% DMSO final) is mixed with 8His-RIPK2 FL enzyme (final concentration of 8 nM). After 15 minutes of pre-incubation at RT, ATP dissolved in assay buffer is added (final concentration 5 μM). The mixture is incubated for 60 minutes at 37° C. in a humidified incubator. Then, ADP Glo Reagent is added, followed by a 40 minute incubation at rt. Finally, Kinase Detection Reagent is added and the entire mixture is incubated for 40 min at RT. The luminescence signal is measured with an Envision reader to determine the amount of ADP produced. Assay buffer: 25 mM HEPES (4-(2-hydroxyethyl)-1-piperazinethanesulfonic acid), 0.1% BSA (bovine serum albumin), 10 mM MgCl2, 5 mM MnCl2, 50 mM KCl, 0.01% CHAPS (3-[(3-cholamidopropyl)dimethylammonio]-1-propanesulfonate), 10 μM Na3VO4, 1 mM DTT (dithiothreitol), pH 7.5 All plates contain wells with vehicle controls instead of compound (1% DMSO) as reference for the high signal (100% CTL (100% of control), high signal), and wells without enzyme as reference for low signal (0% CTL, low signal). The luminescent signal generated is proportional to the ADP produced and is correlated with enzyme activity. The analysis of the data is performed by the calculation of the percentage of ADP production in the presence of the test compound and RIPK2 as compared to the ADP production in the presence of RIPK2 plus 50 μM Gefitinib. (RLU (relative luminescence units) (sample)−RLU(low control))*100/(RLU(high value)−RLU(low control)) [RLU=relative luminescence units].

RIPK2, sequence (O43353 whole entry): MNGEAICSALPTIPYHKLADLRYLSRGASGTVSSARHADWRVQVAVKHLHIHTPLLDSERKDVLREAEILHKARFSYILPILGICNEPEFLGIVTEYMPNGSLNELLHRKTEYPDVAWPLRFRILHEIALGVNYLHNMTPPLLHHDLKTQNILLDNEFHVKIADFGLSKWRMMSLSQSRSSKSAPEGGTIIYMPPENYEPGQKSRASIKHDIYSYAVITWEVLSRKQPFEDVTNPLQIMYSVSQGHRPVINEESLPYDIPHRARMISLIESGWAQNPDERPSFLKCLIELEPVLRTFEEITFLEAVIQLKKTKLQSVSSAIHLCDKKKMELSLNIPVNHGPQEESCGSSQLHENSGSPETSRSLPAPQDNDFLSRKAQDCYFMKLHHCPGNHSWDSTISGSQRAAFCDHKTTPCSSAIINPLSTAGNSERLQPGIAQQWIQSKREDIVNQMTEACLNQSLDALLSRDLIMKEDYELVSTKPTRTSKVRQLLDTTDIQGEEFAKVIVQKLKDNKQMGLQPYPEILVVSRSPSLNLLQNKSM

Structure (SMILES)	IC50 [nM]
Cc1ccc(C(=O)NC2CC2)cc1-c1cn(-c2cncc(N(C)C)c2)cn1 [Example 72, N-cyclopropyl-3-{1-[5-(dimethyl-amino)pyridin-3-yl]-1H-imidazol-4-yl}-4-methylbenzamide]	3.9
Cc1ccc(C(=O)NC2CC2)cc1-c1cnn(-c2cncc(NC3CCN(C(=O)OC(C)(C)C)CC3)c2)c1 [Example 73, tert-butyl 4-[(5-{4-[5-(cyclopropylcarbamoyl)-2-methyl-phenyl]-1H-pyrazol-1-yl}pyridin-3-yl)amino]piperidine-1-carboxylate]	15
Cc1cc(F)c(C(=O)NC2CC2)cc1-c1cnn(-c2cncc(NC3CC4CCC(C3)N4C3COC3)c2)c1 (centres unmarked) [Example 75, N-cyclopropyl-2-fluoro-4-methyl-5-[1-(5-{[8-(oxetan-3-yl)-8-azabicyclo[3.2.1]octan-3-yl]amino}pyridin-3-yl)-1H-pyrazol-4-yl]benzamide]	0.9
Cc1ccc(C(=O)NC2CC2)cc1-c1cnn(-c2cncc(OCc3ccccc3)c2)c1 [Example 80, 3-{1-[5-(benzyloxy)pyridin-3-yl]-1H-pyrazol-4-yl}-N-cyclopropyl-4-methylbenzamide]	26
Cc1ccc(C(=O)NC2CC2)cc1-c1cnn(-c2cncc(OC(C)C)c2)c1 [Example 81, N-cyclopropyl-4-methyl-3-{1-[5-(propan-2-yloxy)pyridin-3-yl]-1H-pyrazol-4-yl}benzamide]	5.4
Cc1ccc(C(=O)NC2CC2)cc1-c1cnn(-c2cncc(O)c2)c1 [Example 95, N-cyclopropyl-3-[1-(5-hydroxypyridin-3-yl)-1H-pyrazol-4-yl]-4-methyl-benzamide]	6.1
Cc1ccc(C(=O)NC2CC2)cc1-c1cnn(-c2cncc(OC3CCOCC3)c2)c1 [Example 96, N-cyclopropyl-4-methyl-3-{1-[5-(oxan-4-yloxy)pyridin-3-yl]-1H-pyrazol-4-yl}benzamide]	5.4
Cc1ccc(C(=O)NC2CC2)cc1-c1cnn(-c2cncc(N3CCOCC3)c2)c1 [Example 98, N-cyclopropyl-4-methyl-3-{1-[5-(morpholin-4-yl)pyridin-3-yl]-1H-pyrazol-4-yl}benzamide]	10
Cc1ccc(C(=O)NC2CC2)cc1-c1cnn(-c2cncc(N3CCN(C)CC3)c2)c1 [Example 100, N-cyclopropyl-4-methyl-3-{1-[5-(4-methylpiperazin-1-yl)pyridin-3-yl]-1H-pyrazol-4-yl}benzamide]	29
Cc1ccc(C(=O)NC2CC2)cc1-c1cnn(-c2cncc(C3(C(N)=O)CC3)c2)c1 [Example 101, 3-{1-[5-(1-carbamoylcyclopropyl)pyridin-3-yl]-1H-pyrazol-4-yl}-N-cyclopropyl-4-methylbenzamide]	370
Cc1ccc(C(=O)NC2CC2)cc1-c1cnn(-c2cncc(N)c2)c1 [Example 106, 3-[1-(5-aminopyridin-3-yl)-1H-pyrazol-4-yl]-N-cyclopropyl-4-methylbenzamide]	7
Cc1ccc(C(=O)NC2CC2)cc1-c1cnn(-c2cncc(NC(=O)NC3CC3)c2)c1 [Example 108, N-cyclopropyl-3-(1-{5-[(cyclopropylcarbamoyl)amino]pyridin-3-yl}-1H-pyrazol-4-yl)-4-methylbenzamide]	4.4
CC(=O)Nc1cncc(-n2cc(-c3cc(C(=O)NC4CC4)ccc3C)cn2)c1 [Example 111, N-cyclopropyl-3-[1-(5-acetamido-pyridin-3-yl)-1H-pyrazol-4-yl]-4-methylbenzamide]	5.3
COCC(=O)Nc1cncc(-n2cc(-c3cc(C(=O)NC4CC4)ccc3C)cn2)c1 [Example 112, N-cyclopropyl-3-{1-[5-(2-methoxyacetamido)pyridin-3-yl]-1H-pyrazol-4-yl}-4-methylbenzamide]	7.8

Further lines, results first:

IC50 [nM]	Structure (SMILES)
1.6	Cc1ccc(C(=O)NC2CC2)cc1-c1cnn(-c2cncc(NC(C)C3CCOC3)c2)c1 (centres unmarked) [Example 67, N-cyclopropyl-4-methyl-3-[1-(5-{[1-(oxolan-3-yl)ethyl]amino}pyridin-3-yl)-1H-pyrazol-4-yl]benzamide]
1.1	Cc1cc(F)c(C(=O)NC2CC2)cc1-c1cnn(-c2cncc(NC3CCN(C4COC4)CC3)c2)c1 [Example 68, N-cyclopropyl-2-fluoro-4-methyl-5-[1-(5-{[1-(oxetan-3-yl)piperidin-4-yl]amino}pyridin-3-yl)-1H-pyrazol-4-yl]benzamide]
2.7	Cc1ccc(C(=O)NC2CC2)cc1-c1cn(-c2cncc(C3CC3)c2)cn1 [Example 71, N-cyclopropyl-3-[1-(5-cyclopropyl-pyridin-3-yl)-1H-imidazol-4-yl]-4-methylbenzamide]
1	COCCN1CCC(Nc2cncc(-n3cc(-c4cc(C(=O)NC5CC5)c(F)cc4C)cn3)c2)CC1 [Example 74, N-cyclopropyl-2-fluoro-5-[1-(5-{[1-(2-methoxyethyl)piperidin-4-yl]amino}pyridin-3-yl)-1H-pyrazol-4-yl]-4-methylbenzamide]
0.61	Cc1ccc(C(=O)NC2CC2)cc1-c1cnn(-c2cncc(NC3CCN(C)CC3)c2)c1 [Example 76, N-cyclopropyl-4-methyl-3-(1-{5-[(1-methylpiperidin-4-yl)amino]pyridin-3-yl}-1H-pyrazol-4-yl)benzamide]
1.1	Cc1cc(F)c(C(=O)NC2CC2)cc1-c1cnn(-c2cncc(NC3CCN(C)CC3)c2)c1 [Example 77, N-cyclopropyl-2-fluoro-4-methyl-5-(1-{5-[(1-methylpiperidin-4-yl)amino]pyridin-3-yl}-1H-pyrazol-4-yl) benzamide]
1.3	Cc1ccc(C(=O)NC2CC2)cc1-c1cnn(-c2cncc(NC3CCOCC3)c2)c1 [Example 78, N-cyclopropyl-4-methyl-3-(1-{5-[(oxan-4-yl)amino]pyridin-3-yl}-1H-pyrazol-4-yl)benzamide]
1.4	Cc1ccc(C(=O)NC2CC2)cc1-c1cn(-c2cncc(NC3CCN(C4COC4)CC3)c2)cn1 [Example 79, N-cyclopropyl-4-methyl-3-[1-(5-{[1-(oxetan-3-yl)piperidin-4-yl]amino}pyridin-3-yl)-1H-imidazol-4-yl] benzamide]
1.5	Cc1ccc(C(=O)NC2CC2)cc1-c1cnn(-c2cncc(NC3CCNCC3)c2)c1 [Example 92, N-cyclopropyl-4-methyl-3-(1-{5-[(piperidin-4-yl)amino]pyridin-3-yl}-1H-pyrazol-4-yl)benzamide]
1.5	Cc1ccc(C(=O)NC2CC2)cc1-c1cnn(-c2cncc(NC3CCN(C4CCC4)CC3)c2)c1 [Example 93, 3-(1-{5-[(1-cyclobutylpiperidin-4-yl)amino]pyridin-3-yl}-1H-pyrazol-4-yl)-N-cyclopropyl-4-methyl-benzamide]
0.81	Cc1ccc(C(=O)NC2CC2)cc1-c1cnn(-c2cncc(NC3CCN(C4COC4)CC3)c2)c1 [Example 94, N-cyclopropyl-4-methyl-3-[1-(5-{[1-(oxetan-3-yl)piperidin-4-yl]amino}pyridin-3-yl)-1H-pyrazol-4-yl] benzamide]
3.3	Cc1ccc(C(=O)NC2CC2)cc1-c1cnn(-c2cncc(NC3CCCCC3)c2)c1 [Example 97, 3-{1-[5-(cyclohexylamino)pyridin-3-yl]-1H-pyrazol-4-yl}-N-cyclo-propyl-4-methylbenzamide]
2.6	Cc1ccc(C(=O)NC2CC2)cc1-c1cnn(-c2cncc(NCC3CC3)c2)c1 [Example 99, N-cyclopropyl-3-(1-{5-[(cyclopropylmethyl)amino]pyridin-3-yl}-1H-pyrazol-4-yl)-4-methyl-benzamide]
1.9	O=C(NC1CC1)c1cc(-c2cnn(-c3cncc(C4CC4)c3)c2)c(Cl)cc1F [Example 104, 4-chloro-N-cyclopropyl-5-[1-(5-cyclopropylpyridin-3-yl)-1H-pyrazol-4-yl]-2-fluorobenzamide]
1	Cc1cc(F)c(C(=O)NC2CC2)cc1-c1cnn(-c2cncc(C3CC3)c2)c1 [Example 105, N-cyclopropyl-5-[1-(5-cyclopropyl-pyridin-3-yl)-1H-pyrazol-4-yl]-2-fluoro-4-methylbenzamide]
3.3	CNC(=O)Nc1cncc(-n2cc(-c3cc(C(=O)NC4CC4)ccc3C)cn2)c1 [Example 107, N-cyclopropyl-4-methyl-3-(1-{5-[(methylcarbamoyl)amino]pyridin-3-yl}-1H-pyrazol-4-yl)benzamide]
3.6	Cc1ccc(C(=O)NC2CC2)cc1-c1cnn(-c2cncc(NC(=O)NC3CCC3)c2)c1 [Example 109, 3-(1-{5-[(cyclobutylcarbamoyl)amino]pyridin-3-yl}-1H-pyrazol-4-yl)-N-cyclopropyl-4-methylbenzamide]
3.4	Cc1ccc(C(=O)NC2CC2)cc1-c1cnn(-c2cncc(NC(=O)NC(C)C)c2)c1 [Example 110, N-cyclopropyl-4-methyl-3-[1-(5-{[(propan-2-yl)carbamoyl]amino}pyridin-3-yl)-1H-pyrazol-4-yl] benzamide]
